The text below walks through data of ChEMBL document CHEMBL3044789, “Comparing weed and crop seedling response to pre-emergence pendimethalin application in Corchorus olitorius and Abelmoschus esculentus” (Crop Prot, 2006).

Data set [1] relates to Calopogonium mucunoides. Kind of data set: Herbicidal activity against Calopogonium mucunoides in Abelmoschus esculentus plots assessed as weed cover at 0.99 kg a.i/ha after 4 weeks (reference value: 22.6 +/- 0.49 %). Format: functional.
The test system of data set [2] is Euphorbia heterophylla. Kind of data set: Herbicidal activity against Euphorbia heterophylla in Abelmoschus esculentus plots assessed as major weed growth at 0.66 kg a.i/ha after 2 weeks. The format is functional.
The subject of data set [3] is Euphorbia heterophylla. Kind of data set: Herbicidal activity against Euphorbia heterophylla in Abelmoschus esculentus plots assessed as weed cover at 0.33 kg a.i/ha after 7 weeks (reference value: 14.7 +/- 0.46 %). Format: functional.
The subject of data set [4] is Abelmoschus esculentus. Briefly: Phytotoxicity in Abelmoschus esculentus assessed as seedling emergence at 1.32 kg a.i/ha treated to soil after 7 weeks (reference value: 95 +/- 0.05 %). Format: organism-based. Particulars: in vivo, other, 1176 h.
The test system of data set [5] is Abelmoschus esculentus. Kind of data set: Phytotoxicity in Abelmoschus esculentus assessed as seedling emergence at 0.99 kg a.i/ha treated to soil after 7 weeks (reference value: 95 +/- 0.05 %). Format: organism-based. Particulars: in vivo, other, 1176 h.
The subject of the next data set is Asteraceae. Kind of data set: Herbicidal activity against Aspilia africana in Corchorus olitorius plots assessed as weed recovery at 0.66 kg a.i/ha after 2 weeks (reference value: 78.3 +/- 0.74 %). The format is functional.
The subject of data set [6] is Calopogonium mucunoides. Kind of data set: Herbicidal activity against Calopogonium mucunoides in Corchorus olitorius plots assessed as weed cover at 0.33 kg a.i/ha after 7 weeks (reference value: 1.7 +/- 0.56 %). The format is functional.
For data set [7], the system named is Rottboellia cochinchinensis. Briefly: Herbicidal activity against Rottboellia cochinchinensis in Corchorus olitorius plots assessed as weed cover at 0.33 kg a.i/ha after 7 weeks (reference value: 1.7 +/- 0.56 %). Format: functional.
A further data set concerns Cyperus rotundus. Kind of data set: Herbicidal activity against Cyperus rotundus in Corchorus olitorius plots assessed as weed cover at 0.66 kg a.i/ha after 2 weeks (reference value: 81.7 +/- 0.43 %). The format is functional.
Another data set deals with Talinum fruticosum. Briefly: Herbicidal activity against Talinum fruticosum in Abelmoschus esculentus plots assessed as weed recovery at 0.99 kg a.i/ha after 2 weeks (reference value: 60.1 +/- 0.46 %). Format: functional.
Data set [8] has as its system Synedrella nodiflora. Briefly: Herbicidal activity against Synedrella nodiflora in Abelmoschus esculentus plots assessed as weed recovery at 0.99 kg a.i/ha after 2 weeks (reference value: 60.1 +/- 0.46 %). Format: functional.
The test system of data set [9] is Synedrella nodiflora. Briefly: Herbicidal activity against Synedrella nodiflora in Corchorus olitorius plots assessed as weed cover at 1.32 kg a.i/ha after 4 weeks (reference value: 20.1+/- 0.57 %). The format is functional.

Each structure is given as a SMILES string.

For `CCC(CC)Nc1c([N+](=O)[O-])cc(C)c(C)c1[N+](=O)[O-]` [PENDIMETHALIN], the Activity in the data set on Calopogonium mucunoides [1] is reported as 39.2%; in the data set with Euphorbia heterophylla [2], 31 /m2; with Euphorbia heterophylla [3], 90%; in the data set on Abelmoschus esculentus [4], 85%; in the data set on Abelmoschus esculentus [5], 85%; in the data set with Asteraceae it was 33.3%. For the same compound, the Activity is 100% in the data set with Calopogonium mucunoides [6]; 100% in data set [7]; 51.7% with Cyperus rotundus; 36.2% with Talinum fruticosum; 36.2% in the data set with Synedrella nodiflora [8]; 33.3% with Synedrella nodiflora [9].
